The source of these data is patent US11083717B2, “Compositions and methods for drug sensitization of parasites” (The Texas A&M University System, priority 2015, dated 2021).

In brackets after ≈: the same amount, converted by molar mass. Where two headings read alike, the source gives them in different places.

In series [1] the test system is Cryptosporidium parvum (CP). Briefly: Cell culture model of Cryptosporidium parvum infection in HCT-8 cells, real-time qRT-PCR. In kind it is cell-based. The following applies: for inhibition at 0.056 µM: HCT-8, @0.056 uM. The method, then: Fresh oocysts of CP (Iowa strain) were purchased from Bunch Grass Farm (Deary, Id.). Oocysts were further purified by a Percoll-based gradient centrifugation method and surface sterilized with 10% bleach for 7 min on ice, followed by washes with phosphate-buffered saline (PBS). An ileocecal colorectal adenocarcinoma cell line (HCT-8, ATCC #CCL-244) was used to host the growth of CP in vitro. One day before the inoculation, HCT-8 cells were seeded in 96-well plates (2.5×10^4/well) containing RPMI 1640 medium supplied with 10% fetal bovine serum (200 μL medium/well in all experiments) and allowed to grow overnight at 37° C. under 5% CO2 atmosphere until they reached ˜90% confluence. For drug testing, host cells were infected with 1.5×10^4 oocysts per well (ratio ˜1:3). After inoculation, parasite oocysts were allowed to undergo excystation and invasion into host cells for 3 h at 37° C. Free parasites and oocyst walls in the medium were removed from the plates by an exchange of the culture medium. Drugs at specified concentrations were added into the culture at this time point (immediately after the medium exchange). Parasite-infected cells were then incubated at 37° C. for additional 41 h (total 44 h infection time). At least two independent experiments were conducted for every experimental condition, each including two replicates drugs and eight replicates for negative controls.
Plates containing HCT-8 cells infected with CP for 44 h were first centrifuged for 10 min at 1000×g to ensure that free merozoites in the medium were firmly settled on the bottom of the wells. Medium was removed, followed by two gentle washes with PBS. For extracting total RNA, 200 μL of ice-cold Bio-Rad iScript qRT-PCR sample preparation reagent (lysis buffer) (Bio-Rad Laboratories, Hercules, Calif.) was added into each well. Plates were sealed with heat sealing films and subjected to vortex for 20 min. Plates were then incubated at 75° C. for 15 min, followed by centrifugation (5 min, 2000×g) to settle down cell debris. Supernatants were used immediately in subsequent qRT-PCR reactions or the plates were stored at −80° C. until use.
The levels of 18S rRNA transcripts from CP and host cells (referred to as Cp18S and Hs18S) were detected by real-time qRT-PCR method using qScrip™ one-step SYBR green qRT-PCR kit (Quanta Biosciences, Gaithersburg, Md.). Cell lysates prepared as described above were diluted by 100 and 2000 folds for detecting Cp18S and Hs18S transcripts, respectively. Reactions were performed in hard-shell 384-well skirted PCR plates (Bio-Rad Laboratories, Hercules, Calif.) (10 μL/well) containing 3 μL diluted cell lysate, 5 μL one-step SYBR green master mix, 0.2 μl RT master mix and the following primers: Cp18S-1011F and Cp18S-1185R primer pair for Cp18S rRNA, and Hs18S-1F and Hs18S-1R primer pair for Hs18S rRNA. Hs18S levels were used as controls and for normalization.
Real-time qRT-PCR reactions were performed by a Bio-Rad CFX384 Touch Real-Time PCR Detection System. The reactions started with synthesizing cDNA at 50° C. for 20 min, followed by 5 min at 95° C. to denature RNA-cDNA hybrids and deactivate reverse transcriptase, and 40 two-temperature thermal cycles of PCR amplification at 95° C., 10 sec and 58° C., 30 sec. At the end of PCR amplification, melting curve analysis was performed between 65° C. to 95° C. At least 2 technical replicates were included in qRT-PCR reactions for each sample.
The % inhibition (% inh @ (μM)) was calculated using a standard curve.

The subject of a further series is human fibroblast. In words: in vitro. The following applies: human.
In the next series the test system is S. cerevisiae. Briefly: in vitro. The following applies: Saccharomyces cerevisiae.
The mark [2] stands for this setting: Cryptosporidium parvum, 44 h, CP in HCT-8 cells, 44 h infection, 50% reduction of parasite growth vs control, NA: not active, read-out: MIC50.
[3] abbreviates: CP in HCT-8 cells, 44 h infection, 50% reduction of parasite growth vs control, NA: not active, read-out: MIC50.

Take `O=C(Cc1ccc(Oc2nc3ccc(F)cc3s2)cc1)N1CCCCC1` [NZ-471, 2-{4-[(6-fluoro-1,3-benzothiazol-2-yl)oxy]phenyl}-1-(piperidin-1-yl)ethan-1-one]: the MIC50 in series [1] (setting [2]) lay within 1 to 4 µM (≈ 0.37 to 1.48 µg/mL). The inhibition at 4 µM in series [1] (Cryptosporidium parvum, HCT-8, @4 uM, read-out: % inh @) was 89%. Besides, in the series on human fibroblast, the “concentrations at which not toxic, human fibroblast cytotoxicity testing” value is not below 100 µM. Also, in the series with S. cerevisiae, the “concentrations at which not toxic, S. cerevisiae cytotoxicity testing” value is not below 100 µM. `CNC(=O)Cc1c(F)cc(Oc2nc3ccc(Cl)cc3s2)cc1F` [NZ-459, 2-{4-[(6-chloro-1,3-benzothiazol-2-yl)oxy]-2,6-difluorophenyl}-N-methylacetamide]: in series [1] (setting [2]), the MIC50 came to 1 µM (≈ 0.369 µg/mL). The “concentrations at which not toxic, human fibroblast cytotoxicity testing” value in the series on human fibroblast is not below 100 µM. Moreover, the “concentrations at which not toxic, S. cerevisiae cytotoxicity testing” value in the series with S. cerevisiae was not below 100 µM.

Consider `NC(=O)Cc1ccc(Oc2nc3cc(F)c(F)cc3s2)cc1` [NZ-485, 2-{4-[(5,6-difluoro-1,3-benzothiazol-2-yl)oxy]phenyl}acetamide], for which the MIC50 in series [1] (setting [2]) was in the range of 1 to 4 µM (≈ 0.32 to 1.28 µg/mL). Besides, the “concentrations at which not toxic, human fibroblast cytotoxicity testing” value in the series on human fibroblast is not below 100 µM. For the same compound, in the series with S. cerevisiae, the “concentrations at which not toxic, S. cerevisiae cytotoxicity testing” value was not below 100 µM. Turning to `CNC(=O)Cc1c(F)cc(Oc2nc3ccc(F)cc3s2)cc1F` [NZ-433, 2-{2,6-difluoro-4-[(6-fluoro-1,3-benzothiazol-2-yl)oxy]phenyl}-N-methylacetamide], the MIC50 in series [1] (setting [2]) is approximately 2 µM (≈ 0.705 µg/mL). In the series with human fibroblast, the “concentrations at which not toxic, human fibroblast cytotoxicity testing” value is not below 100 µM. The “concentrations at which not toxic, S. cerevisiae cytotoxicity testing” value in the series with S. cerevisiae is not below 100 µM. As to `CC(C(=O)N1CCNCC1)c1ccc(Oc2nc3cc(F)c(F)cc3s2)cc1` (centres unmarked) [NZ-489, 2-{4-[(5,6-difluoro-1,3-benzothiazol-2-yl)oxy]phenyl}-1-(piperazin-1-yl)propan-1-one], in series [1] (setting [2]), the MIC50 is less than 0.25 µM. Moreover, the inhibition at 0.25 µM in series [1] (Cryptosporidium parvum, HCT-8, @0.25 uM) came to 68%. The “concentrations at which not toxic, human fibroblast cytotoxicity testing” value with human fibroblast is not below 100 µM. For the same compound, in the series with S. cerevisiae, the “concentrations at which not toxic, S. cerevisiae cytotoxicity testing” value was not below 100 µM. On to `CNC(=O)Cc1ccc(Oc2nc3ccc(F)cc3s2)cc1O` [NZ-395, 2-{4-[(6-fluoro-1,3-benzothiazol-2-yl)oxy]-2-hydroxyphenyl}-N-methylacetamide], for which, in series [1] (setting [2]), the MIC50 is approximately 5 µM (≈ 1.66 µg/mL). The “concentrations at which not toxic, human fibroblast cytotoxicity testing” value with human fibroblast is not below 100 µM. Moreover, in the series on S. cerevisiae, the “concentrations at which not toxic, S. cerevisiae cytotoxicity testing” value was not below 100 µM.

For the compound `O=C(Cc1ccc(Oc2nc3ccc(Cl)cc3s2)cc1)N1CCNCC1` [NZ-479, 2-{4-[(6-chloro-1,3-benzothiazol-2-yl)oxy]phenyl}-1-(piperazin-1-yl)ethan-1-one], the MIC50 in series [1] (setting [2]) lay in the range of 0.5 to 1 µM (≈ 0.194 to 0.388 µg/mL). Besides, the “concentrations at which not toxic, human fibroblast cytotoxicity testing” value in the series on human fibroblast was not below 100 µM. For the same compound, the “concentrations at which not toxic, S. cerevisiae cytotoxicity testing” value with S. cerevisiae was not below 100 µM. As for `CC(C(=O)N(C)C)c1ccc(Oc2nc3ccc(Cl)cc3s2)cc1` (centres unmarked) [NZ-368, 2-{4-[(6-chloro-1,3-benzothiazol-2-yl)oxy]phenyl}-N,N-dimethylpropanamide], the MIC50 in series [1] (setting [2]) is less than 0.125 µM. Further, the “concentrations at which not toxic, human fibroblast cytotoxicity testing” value in the series on human fibroblast was not below 100 µM. The “concentrations at which not toxic, S. cerevisiae cytotoxicity testing” value in the series with S. cerevisiae fell in the range of 25 to 50 µM. On to `CC(C(=O)N(C)C)c1ccc(Oc2cnc3cc(Cl)ccc3n2)cc1` (centres unmarked) [NZ-530, 2-{4-([6-chloroquinoxalin-2-yl)oxy]phenyl}-N,N-dimethylpropanamide], for which, in series [1] (setting [2]), the MIC50 is approximately 0.225 µM (≈ 0.0801 µg/mL). As to `CC(C(=O)N1CCN(C)CC1)c1ccc(Oc2nc3ccc(Cl)cc3s2)cc1` (single isomer, unassigned) [NZ-366 (peak 2), 2-{4-[(6-chloro-1,3-benzothiazol-2-yl)oxy]phenyl}-1-(4-methylpiperazin-1-yl)propan-1-one], the “% inh @ (μM)” value in series [1] (@0.05 uM) is listed as 81% @0.05 uM. The MIC50 in series [1] (setting [3]) is less than 0.05 µM. In series [1] (Cryptosporidium parvum, 44 h), `CN1CCN(C(=O)COc2ccc(Oc3cnc4cc(Cl)ccc4n3)cc2)CC1` [NZ-278, 2-{4-[(6-chloroquinoxalin-2-yl)oxy]phenoxy}-1-(4-methylpiperazin-1-yl)ethan-1-one] yielded an MIC50 of approximately 0.25 µM (≈ 0.103 µg/mL). Take `CC(C(=O)N1CCOCC1CO)c1ccc(Oc2nc3ccc(Cl)cc3s2)cc1` (centres unmarked) [NZ-555, 2-{4-[(6-chloro-1,3-benzothiazol-2-yl)oxy]phenyl}-1-[3-(hydroxymethyl)morpholin-4-yl]propan-1-one]: in series [1] (setting [2]), the MIC50 was less than 0.056 µM. In series [1] (Cryptosporidium parvum), this compound came in with an inhibition at 0.056 µM of 79%.

With `O=C(Cc1ccc(Oc2nc3ccc(Cl)cc3s2)cc1)N1CCOCC1` [NZ-575, 2-{4-[(6-chloro-1,3-benzothiazol-2-yl)oxy]phenyl}-1-(morpholin-4-yl)ethan-1-one], the MIC50 in series [1] (setting [2]) is approximately 1 µM (≈ 0.389 µg/mL).

Turning to `O=C(N1CCOCC1)C1(c2ccc(Oc3nc4ccc(Cl)cc4s3)cc2)CC1` [NZ-561, 6-chloro-2-{4-[1-(morpholine-4-carbonyl)cyclopropyl]phenoxy}-1,3-benzothiazole], the MIC50 in series [1] (setting [2]) stood at 0.04 µM (≈ 0.0166 µg/mL). On to `O=C(Nc1ccc(Oc2nc3ccc(Cl)cc3s2)cc1)NC1COC1` [NZ-574, 1-{4-[(6-chloro-1,3-benzothiazol-2-yl)oxy]phenyl}-3-(oxetan-3-yl)urea], for which the MIC50 in series [1] (setting [2]) was approximately 1 µM (≈ 0.376 µg/mL). `CC(C(=O)NCCN)c1ccc(Oc2nc3ccc(Cl)cc3s2)cc1` (centres unmarked) [NZ-518, N-(2-aminoethyl)-2-{4-([6-chloro-1,3-benzothiazol-2-yl)oxy]phenyl}propanamide]: in series [1] (setting [2]), the MIC50 is more than 0.45 µM. With `CNC(=O)C(C)c1ccc(Oc2nc3ccc(Cl)cc3s2)cc1` (single isomer, unassigned) [NZ-369 (peak 1), 2-{4-[(6-chloro-1,3-benzothiazol-2-yl)oxy]phenyl}-N-methylpropanamide], the MIC50 in series [1] (setting [3]) is listed as 0.07 µM (≈ 0.0243 µg/mL).

`CC(C(=O)NC1CNC(=O)C1)c1ccc(Oc2nc3ccc(Cl)cc3s2)cc1` (centres unmarked) [NZ-562, 2-{4-[(6-chloro-1,3-benzothiazol-2-yl)oxy]phenyl}-N-(5-oxopyrrolidin-3-yl)propanamide]: the MIC50 in series [1] (setting [2]) was approximately 0.45 µM (≈ 0.187 µg/mL). Consider `CS(=O)(=O)NC(=O)COc1ccc(Oc2cnc3cc(Cl)ccc3n2)cc1` [NZ-259, 2-{4-[(6-chloroquinoxalin-2-yl)oxy]phenoxy}-N-methanesulfonylacetamide], for which, in series [1] (setting [2]), the MIC50 is more than 10 µM. Further, the inhibition at 10 µM in series [1] (Cryptosporidium parvum, HCT-8, @10 uM, read-out: % inh @) stood at 33%.

With `CC(C(=O)NCCN(C)CCO)c1ccc(Oc2nc3ccc(Cl)cc3s2)cc1` (centres unmarked) [NZ-556, 2-{4-[(6-chloro-1,3-benzothiazol-2-yl)oxy]phenyl}-N-{2-[(2-hydroxyethyl)(methyl)amino]ethyl}propanamide], the MIC50 in series [1] (setting [2]) was approximately 0.056 µM (≈ 0.0243 µg/mL). In addition, in series [1] (Cryptosporidium parvum), the inhibition at 0.056 µM amounted to 64%.

Consider `O=C(Nc1ccc(Oc2nc3ccc(Cl)cc3s2)cc1)N1CCS(=O)(=O)CC1` [NZ-573, N-{4-[(6-chloro-1,3-benzothiazol-2-yl)oxy]phenyl}-1,1-dioxo-1λ^6,4-thiomorpholine-4-carboxamide], for which the MIC50 in series [1] (setting [2]) is approximately 0.5 µM (≈ 0.219 µg/mL). Consider `CC(C(=O)N(C)CCN(C)C)c1ccc(Oc2nc3ccc(Cl)cc3s2)cc1` (centres unmarked) [NZ-547, 2-{4-[(6-chloro-1,3-benzothiazol-2-yl)oxy]phenyl}-N-[2-(dimethylamino)ethyl]-N-methylpropanamide], for which the MIC50 in series [1] (setting [2]) was less than 0.056 µM. Moreover, the inhibition at 0.056 µM in series [1] (Cryptosporidium parvum) is 96%. As for `CC(C(=O)NCCN(C)C)c1ccc(Oc2cnc3cc(Cl)ccc3n2)cc1` (centres unmarked) [NZ-535], the MIC50 in series [1] (setting [2]) fell in the range of 0.225 to 0.45 µM (≈ 0.0898 to 0.18 µg/mL). On to `CC(C(=O)NCCN(CCO)CCO)c1ccc(Oc2nc3ccc(Cl)cc3s2)cc1` (centres unmarked) [NZ-557, N-{2-[bis(2-hydroxyethyl)amino]ethyl}-2-{4-[(6-chloro-1,3-benzothiazol-2-yl)oxy]phenyl}propanamide], for which the MIC50 in series [1] (setting [2]) fell in the range of 0.112 to 0.225 µM (≈ 0.052 to 0.104 µg/mL).
